Structures can show the parent of a compound that is named as a salt.

As for `C[Si](C)(C)c1ccc(Oc2nnc(Cl)cc2OC(=O)c2ccccc2)cc1`, the melting point was 100 to 102 °C.

For the compound `Cc1ccccc1Oc1nnc(Cl)cc1OC(=O)N(C)C`, the melting point is 107 to 109 °C.

In turn, `CN(C)C(=O)Oc1cc(Cl)nnc1Oc1ccccc1C1CC1` gave a melting point of 137 to 138 °C.

For `CN(C)C(=O)Oc1cc(Cl)nnc1Oc1cccc(C(F)(F)F)c1`, the melting point was 92 to 93 °C.

Take `Cc1cccc(C2CC2)c1Oc1nnc(Cl)cc1OC(=O)N(C)C`: the melting point was in the range of 136 to 138 °C.

Consider `CCN(CC)C(=O)Oc1cc(Cl)nnc1Oc1c(C)cccc1C1CC1`, for which the melting point lay within 119 to 121 °C.

As for `Cc1cccc(C2CC2)c1Oc1nnc(Cl)cc1OC(=O)N(C(C)C)C(C)C`, the melting point lay in the range of 103 to 105 °C.

Turning to `C[Si](C)(C)c1c(Cl)nnc(Oc2ccccc2)c1O`, the melting point lay within 119 to 120 °C.

`CC(C)(C)c1ccccc1Oc1nnc(Cl)c([Si](C)(C)C)c1O` yielded a melting point of 160 to 163 °C.

For the compound `Cc1cccc(C2CC2)c1Oc1nnc(Cl)cc1OC(=O)N(C)C(C)(C)C`, the melting point fell in the range of 113 to 115 °C.

`Cc1cccc(C2CC2)c1Oc1nnc(Cl)cc1OC(=O)N(C)c1ccccn1` displayed a melting point of 140 to 147 °C.

`CON(C)C(=O)Oc1cc(Cl)nnc1Oc1c(C)cccc1C1CC1` had a melting point of 63 to 64.5 °C.

For the compound `Cc1cccc(C2CC2)c1Oc1nnc(Cl)cc1OC(=O)N(CCCl)CCCl`, the melting point was in the range of 166 to 167 °C.

`Cc1cccc(C2CC2)c1Oc1nnc(Cl)cc1OC(=O)N(CCC#N)CCC#N` had a melting point of 159 to 161 °C.

As for `Cc1cccc(C2CC2)c1Oc1nnc(Cl)cc1C(=O)[O-].[K+]`, the melting point lay within 187 to 189 °C.

Compound `C[Si](C)(C)c1ccc(Oc2nnc(Cl)cc2O)cc1` returned a melting point of 197 to 199 °C.

Regarding `Cc1cccc(C2CC2)c1Oc1nnc(Cl)cc1O`, the melting point was in the range of 201 to 202 °C.

Take `Cc1ccc(S(=O)(=O)Oc2c(Cl)cnnc2Oc2ccccc2C)cc1` (as salt: benzene sulfonate) [Compound No. 66, 5-Chloro-3-(2-methylphenoxy)-4-pyridazinyl 4-methylbenzene sulfonate]: the melting point was in the range of 140 to 143 °C.

`Cc1ccc(S(=O)(=O)Oc2ccccc2Oc2nnc(Cl)cc2OS(=O)(=O)c2ccc(C)cc2)cc1` (as salt: benzene sulfonate) [Compound No. 2233, 2-[(6-Chloro-4-{[(4-methylphenyl)sulfonyl]oxy}-3-pyridazinyl)oxy]phenyl 4-methylbenzene sulfonate] gave a melting point of 125.5 to 126.5 °C.

`O=S(=O)(Oc1cc(Cl)nnc1Oc1ccccc1C1CC1)C(F)(F)F` (as salt: methanesulfonate) [Compound No. 2081, 6-Chloro-3-(2-cyclopropylphenoxy)-4-pyridazinyl trifluoromethanesulfonate] showed a melting point of 54 to 61 °C.

Turning to `Cc1ccccc1Oc1nnccc1O` [Compound No. 5, 3-(2-Methylphenoxy)-4-pyridazinol], the melting point lay within 169 to 171 °C.

Turning to `CC(C)c1ccccc1Oc1nnccc1O` [Compound No. 6, 3-(2-Isopropylphenoxy)-4-pyridazinol], the melting point lay in the range of 181.5 to 182 °C.

In turn, `Cc1ccccc1Oc1nncc(Cl)c1O` [Compound No. 45, 5-Chloro-3-(2-methylphenoxy)-4-pyridazinol] had a melting point of 238 to 243 °C.

In turn, `Oc1cc(Cl)nnc1Oc1ccccc1` [Compound No. 123, 6-Chloro-3-phenoxy-4-pyridazinol] yielded a melting point of 222 to 224 °C.

The compound `Oc1cc(Cl)nnc1Oc1ccccc1F` [Compound No. 124, 6-Chloro-3-(2-fluorophenoxy)-4-pyridazinol] yielded a melting point of 210 to 212 °C.

Consider `Oc1cc(Cl)nnc1Oc1ccccc1Cl` [Compound No. 125, 6-Chloro-3-(2-chlorophenoxy)-4-pyridazinol], for which the melting point is 208 to 212 °C.

As for `Oc1cc(Cl)nnc1Oc1ccccc1Br` [Compound No. 126, 3-(2-Bromophenoxy)-6-chloro-4-pyridazinol], the melting point fell in the range of 201 to 203 °C.

For the compound `Oc1cc(Cl)nnc1Oc1ccccc1I` [Compound No. 127, 6-Chloro-3-(2-iodophenoxy)-4-pyridazinol], the melting point was 216 to 217 °C.

Compound `Cc1ccccc1Oc1n[n+]([O-])c(Cl)cc1O` [Compound No. 129, 6-Chloro-3-(2-methylphenoxy)-4-pyridazinol 1-oxide] displayed a melting point of 194 to 196 °C.

Consider `CCc1ccccc1Oc1nnc(Cl)cc1O` [Compound No. 130, 6-Chloro-3-(2-ethylphenoxy)-4-pyridazinol], for which the melting point fell in the range of 217 to 218 °C.

On to `CCCc1ccccc1Oc1nnc(Cl)cc1O` [Compound No. 131, 6-Chloro-3-(2-propylphenoxy)-4-pyridazinol], for which the melting point lay within 170 to 172 °C.

Compound `CCCCc1ccccc1Oc1nnc(Cl)cc1O` [Compound No. 133, 3-(2-Butylphenoxy)-6-chloro-4-pyridazinol] displayed a melting point of 149.5 to 150 °C.

As to `CC(C)Cc1ccccc1Oc1nnc(Cl)cc1O` [Compound No. 134, 6-Chloro-3-(2-isobutylphenoxy)-4-pyridazinol], the melting point lay in the range of 151.5 to 152.5 °C.

On to `CCC(C)c1ccccc1Oc1nnc(Cl)cc1O` (stereo not shown) [Compound No. 135, 3-(2-s-Butylphenoxy)-6-chloro-4-pyridazinol], for which the melting point fell in the range of 158 to 159 °C.

`CC(C)(C)c1ccccc1Oc1nnc(Cl)cc1O` [Compound No. 136, 3-(2-tert-Butylphenoxy)-6-chloro-4-pyridazinol] came in with a melting point of 215 to 216 °C.

Take `CCCCCc1ccccc1Oc1nnc(Cl)cc1O` [Compound No. 137, 6-Chloro-3-(2-pentylphenoxy)-4-pyridazinol]: the melting point was 151.5 to 152.5 °C.

In the case of `CCCCCCc1ccccc1Oc1nnc(Cl)cc1O` [Compound No. 138, 6-Chloro-3-(2-hexylphenoxy)-4-pyridazinol], the melting point was 118 to 118.5 °C.

In turn, `Oc1cc(Cl)nnc1Oc1ccccc1C1CC1` [Compound No. 139, 6-Chloro-3-(2-cyclopropylphenoxy)-4-pyridazinol] returned a melting point of 229 to 231 °C.

On to `Oc1cc(Cl)nnc1Oc1ccccc1C1(F)CC1` [Compound No. 140, 6-Chloro-3-[2-(1-fluorocyclopropyl)phenoxy]-4-pyridazinol], for which the melting point was in the range of 152 to 157 °C.

The compound `CC1(c2ccccc2Oc2nnc(Cl)cc2O)CC1` [Compound No. 144, 6-Chloro-3-[2-(1-methylcyclopropyl)phenoxy]-4-pyridazinol] registered a melting point of 196 to 198 °C.

Regarding `CCC1(c2ccccc2Oc2nnc(Cl)cc2O)CC1` [Compound No. 145, 6-Chloro-3-[2-(1-ethylcyclopropyl)phenoxy]-4-pyridazinol], the melting point lay within 162 to 165 °C.

Take `Oc1cc(Cl)nnc1Oc1ccccc1C1(C2CC2)CC1` [Compound No. 151, 6-Chloro-3-{2-[1-(cyclopropyl)cyclopropyl]phenoxy}-4-pyridazinol]: the melting point fell in the range of 180 to 182 °C.

Take `COCC1(c2ccccc2Oc2nnc(Cl)cc2O)CC1` [Compound No. 163, 6-Chloro-3-{2-[1-(methoxymethyl)cyclopropyl]phenoxy}-4-pyridazinol]: the melting point lay in the range of 187 to 190 °C.

Broadly, the melting point is the temperature of the solid-liquid transition.

For the origin of these results see patent publication US7964531B2, “3-phenoxy-4-pyridazinol derivatives and herbicidal composition containing the same” (Mitsui Chemicals Agro, Inc., priority 2001, dated 2011).
